US20040220164A1, “Triaza compound immunoregulatory agents” (priority 2001, published 2004)
Values after ≈ are worked out from the molar mass of the structure shown.

Assays:
HIV-1 strain NL4.3 = test: Anti-HIV-1 assay in MT-4 cells (p24 Ag ELISA, Example 3); assay type: cell-based; settings: MT-4 cells; for IC50: Human immunodeficiency virus 1, MT4, read-out: IC50 HIV-1 (NL4.3), p24 Ag ELISA
Procedure: Antiviral Assays. For HIV-1, MT-4 cells were infected with the HIV-1 strain NL4.3. Briefly, five-fold dilutions of the compounds (in 100 μl) were added to 96-well flat bottom plates (Iwaki, Japan). Then, to each well, 7.5×10^4 MT-4 cells were added in 50 μl medium, followed by 50 μl of diluted HIV-1 stock (strain NL4.3). Cytopathic effect (CPE) induced by the virus was checked regularly microscopically. When strong CPE was observed (after 3 to 5 days of incubation) in untreated HIV-1 infected cells, the supernatant was collected, stored at −20° C. and analyzed for HIV-1 core antigen by p24 Ag ELISA (NEN™, PerkinElmer Life Sciences, Boston, Mass.). Finally, the IC50 value of the compounds (i.e., the concentration of the compound required for 50% reduction of HIV infection as measured by viral p24 antigen level in the supernatant of infected MT-4 cells) was calculated.

HHV-7 (KHR strain) [1] = test: Anti-HHV-7 assay in SupT1 cells (antigen expression, flow cytometry, Example 3); assay type: cell-based; settings: SupT1 cells; for IC50: SUP-T1, read-out: IC50 HHV-7 (50% reduction of HHV-7 antigen expression)
Procedure: For HHV-7, five-fold dilutions of the compounds were added in 500 μl culture medium in 24-well flat bottom plates (Iwaki, Japan), whereupon 2×10^5 SupT1 cells were added in 400 μl culture medium. After 30 min incubation at room temperature, 100 μl of HHV-7 stock was added to each well. HHV-7-infected and mock-infected SupT1 cells were cultured in a final volume of 1 ml medium in the absence of the compounds. On day 4, half of the medium and the cells were replaced and fresh medium without new compound was added. This procedure was repeated every 2 or 3 days. The CPE was checked regularly microscopically. When CPE was observed, the HHV-7 antigen expression was monitored by flow cytometry, as described previously (Zhang, Y. et al. (1999) “Selective activity of various antiviral compounds against HHV-7 infection Antiviral Res. 43, 23-35.)

MT-4 cells = test: Cytotoxicity assay (trypan blue exclusion, propidium iodide); assay type: cell-based, human
Procedure: (§1) Cytotoxicity Assay. Cellular toxicity of the compounds was measured by trypan blue exclusion and also by Propidium Iodide by flow cytometry after 3 or 4 days of incubation, in parallel with the CD4 antigen expression. The CC50 value of each CADA analog is the concentration (in μg/ml) required to reduce the viability of the cells by 50%.

SupT1 cells = test: as above; assay type: cell-based, human
Procedure: as §1

CD4 [2] = biological target: T1, CD4 (Homo sapiens, UniProt P01730); test: CD4 down-modulation, flow cytometry with FITC-conjugated anti-CD4 (SK3) mAb, MT-4 cells; assay type: cell-based; design: To study the effect of the CADA derivatives on surface CD4 antigen expression, MT-4 and SupT1 cells were incubated; endogenous in cells; host or cells: MT-4, SupT1, PBMC; settings: for IC50: read-out: IC50 CD4 (50% inhibition of extracellular CD4 expression) (converted)
Procedure: Flow Cytometric Analyses. To study the effect of the CADA derivatives on surface CD4 antigen expression, MT-4 and SupT1 cells were incubated with a serial 5-fold dilution of the compounds (50, 10, 2, 0.4 and 0.08 μg/ml) or medium at 37° C. […] Briefly, after washing with phosphate-buffered saline (PBS) containing 2% fetal calf serum (FCS), cells were incubated with FITC-conjugated anti-CD4 (SK3) mAb for 30 min at 4° C. As a negative control for a specific background staining, cells were stained in parallel with Simultest Control γ1/γ^2a (Becton Dickinson). Then the cells were washed, fixed with 1% formaldehyde and analyzed by flow cytometry in a FACScalibur (Becton Dickinson, San Jose, Calif., USA). Data were acquired and analyzed with CellQuest software (Becton Dickinson). For the calculation of the CD4 receptor expression, the mean fluorescence intensity (MFI) of each sample was expressed as percentage of the MFI of control cells (after subtracting the MFI of the isotype control). Finally, the IC50 value of the compounds (i.e., the concentration of the compound required for 50% inhibition of extracellular CD4 expression) was calculated.

CD4 [3] = biological target: T1, CD4; test: CD4 down-modulation, flow cytometry with FITC-conjugated anti-CD4 (SK3) mAb, SupT1 cells; assay type: cell-based; design: To study the effect of the CADA derivatives on surface CD4 antigen expression, MT-4 and SupT1 cells were incubated; endogenous in cells; host or cells: MT-4, SupT1, PBMC; settings: for IC50: day 4, read-out: IC50 CD4 (50% inhibition of extracellular CD4 expression) (converted)
Procedure: Flow Cytometric Analyses. To study the effect of the CADA derivatives on surface CD4 antigen expression, MT-4 and SupT1 cells were incubated with a serial 5-fold dilution of the compounds (50, 10, 2, 0.4 and 0.08 μg/ml) or medium at 37° C. Cell surface CD4 antigen expression was analyzed at day 3 (MT-4) or day 4 (SupT1). Briefly, after washing with phosphate-buffered saline (PBS) containing 2% fetal calf serum (FCS), cells were incubated with FITC-conjugated anti-CD4 (SK3) mAb for 30 min at 4° C. As a negative control for a specific background staining, cells were stained in parallel with Simultest Control γ1/γ^2a (Becton Dickinson). Then the cells were washed, fixed with 1% formaldehyde and analyzed by flow cytometry in a FACScalibur (Becton Dickinson, San Jose, Calif., USA). Data were acquired and analyzed with CellQuest software (Becton Dickinson). For the calculation of the CD4 receptor expression, the mean fluorescence intensity (MFI) of each sample was expressed as percentage of the MFI of control cells (after subtracting the MFI of the isotype control). Finally, the IC50 value of the compounds (i.e., the concentration of the compound required for 50% inhibition of extracellular CD4 expression) was calculated.

HHV-7 (KHR strain) [4] = test: Anti-HHV-7 assay (HHV-7 antigen expression, flow cytometry, day 12); assay type: cell-based; settings: SUP-T1, read-out: IC50 for HHV-7 infection
Procedure: The antiviral activity of CADA against HIV-1 and RHV-7 was investigated. PBMCs and […] cell-depleted PBMCs (removed with CD8 magnetic beads; Dynal AS, Oslo, Norway), previously activated with purified PHA (2 μg/ml) and rhIL-2 (1 ng/ml) for 3 days, were pelleted and exposed to HIV-1 (1 ng p24 Ag per 10^6 cells) for 2 hours at 370C. Then the cells were washed three times with warm medium and cultured in complete medium containing rhIL-2 (1 ng/ml) in the presence or absence of different concentrations of CADA hydrochloride. The anti-HIV-1 assays were also performed in MT-4 and SupT1 cells. CADA hydrochloride was diluted in the plates, then the MT-4 cells or SupT1 cells were added and finally the T-tropic HIV-1 strains. The supernatant was collected at day 5 for MT-4 cells, day 8 for SupT1 cells and day 12 for PBMCs, and stored at −20° C. and analyzed for HIV-1 core antigen by p24 Ag ELISA (NEN, Brussels, Belgium). The SupT1 cells were refreshed on day 4, and half of the medium and cells were replaced and fresh CADA-free medium was added. For the PBMCs, fresh culture medium was added at day 6 containing rhIL-2 (but no CADA). For the anti-HHV-7 assays in PBMCs, CADA hydrochloride was diluted in a plate, 2×10˜cells were added and then HHV-7 (KHR strain) was added in complete medium containing rhIL-2 (1 ng/ml). Fresh culture medium was added again at day 6 containing rhIL-2 (but no CADA). The same infection protocol was used for the SupT1 cells, but without rhIL-2. The SupT1 cells were refreshed on day 4 and day 8, half of the medium and the cells were replaced, and fresh medium without CADA was added. The HHV-7 antigen expression was monitored (at day 12) with a specific mAb to HHV-7 (RK-4) (Advanced Biotechnologies, Columbia, Md.) by flow cytometry, as described previously (Thang, Y., et al., Antiviral Res. 43:23-35 (1999)).

[5] = Cytotoxic concentration (Example 2); assay type: cell-based; settings: human, MT-4 cells; read-out: CC50
[6] = Cytotoxic concentration (Example 2); assay type: cell-based; settings: human, SupT1 cells; read-out: CC50
HIV-1 and HHV-7 = test: Selectivity index (ratio of CC50 to IC50), antiviral assays; assay type: cell-based; settings: over the viruses and cell types tested
Procedure: The IC50 of CADA against the CCR5-using (R5) HIV-1 strain BaL was 0.8 μM in PBMCs. […] The IC50 of PMA for the HIV-1 strains (IIIB, RF and NL4.3) in MT-4 cells was about 0.3 nM, and the IC50 for HHV-7 infection in SupT1 cells was 0.6 nM.

CD4 [7] = biological target: T1, CD4; test: Cell surface CD4 expression by flow cytometry (anti-CD4 mAb Leu3a-PE); assay type: cell-based; design: To study the effect of the CADA derivatives on surface CD4 antigen expression, MT-4 and SupT1 cells were incubated; endogenous in cells; host or cells: MT-4, SupT1, PBMC; settings: for percentage of cell surface CD4 expression: SupT1 cells, ATA 24 μM, CADA 16 μM, PMA 8 nM (FIG. 4)
Procedure: FIGS. 2A-2C. Surface CD4 expression in MT-4 cell line, SupT1 cell line and PBMCs after incubation with CADA hydrochloride (3.2 or 16 μM) for 1 and 4 days. (A) Cell surface CD4 expression of control MT-4 cells and MT-4 cells treated with CADA (3.2 μM) for 1 day or 4 days. (B) Cell surface CD4 expression of control SupT1 cells and SupT1 cells treated with CADA (3.2 μM) for 1 day or 4 days. (C) Cell surface CD4 expression of control PBMCs and PBMCs treated with CADA (16 μM) for 1 day or 4 days. The cells were stained with anti-CD4 mAb (Leu3a-PE). Percentages of fluorescent cells and MFI (mean fluorescence intensity) are indicated in each histogram.
FIG. 4. Comparison of the effects on CD4 modulation by ATA (24 μM), CADA hydrochloride (16 μM) and PMA (8 nM) in SupT1 cells after incubation with the compounds analyzed after 20 minutes, 4 hours, 1 day and 4 days.
Cells were incubated with CADA hydrochloride and the CD4 expression on the cell surface was analyzed. […] In peripheral blood mononuclear cells (PBMCs), the percentage of CD4 expression decreased to 0.2% after incubation with CADA (16 μM) for 4 days (FIG. 2).
Expression of various other surface antigens was also examined in MT-4 cells, SupT1 cells and PBMCs after incubation with CADA (16 μM) or CADA-free medium at 37° C. for 4 days. After washing with phosphate-buffered saline (PBS) containing 2% FCS(fetal calf serum), the cells were incubated with mAb (as indicated in Table 1) for 20 min at 4° C. Then the cells were washed, fixed with 1% formaldehyde and analyzed by flow cytometry. All mAbs were purchased from Becton-Dickinson (Erembodegem, Belgium).
CADA was compared with ATA and PMA with regard to their down-modulating effects. […] At day 4, the CD4 expression in SupT1 cells treated with CADA reduced to 1.2%.

[8] = Cytotoxicity assay (trypan blue exclusion, propidium iodide); assay type: cell-based, human; settings: human, read-out: CC50 (50% cytotoxic concentration)
Procedure: as §1

C=C1CN(S(=O)(=O)c2ccc(C)cc2)CCCN(Cc2cccnc2)CCCN(S(=O)(=O)c2ccc(C)cc2)C1 [AS-N6P6]
IC50 HIV-1 (NL4.3), p24 Ag ELISA (HIV-1 strain NL4.3): 2.38 µg/mL (≈ 4.08 µM) | IC50 HHV-7 (50% reduction of HHV-7 antigen expression) (HHV-7 (KHR strain) [1]): 1.50 µg/mL | CC50 (50% cytotoxic concentration) (MT-4 cells): 21.4 µg/mL (≈ 36.7 µM) | CC50 (50% cytotoxic concentration) (SupT1 cells): >50 µg/mL | IC50 CD4 (50% inhibition of extracellular CD4 expression) (CD4 [2]; MT-4 cells, day 3): 3.22 µg/mL | CD4 down-modulating activity, fold less active than CADA (CD4 [2]; compared to CADA, MT-4 cells (stated for some compounds)): 7 fold | IC50 CD4 (50% inhibition of extracellular CD4 expression) (CD4 [3]; day 4): 4.27 µg/mL

CCCCCCCCCCCCCC(=O)O[C@@H]1[C@@H](C)[C@@]2(O)[C@@H](C=C(CO)C[C@]3(O)C(=O)C(C)=C[C@@H]23)[C@@H]2C(C)(C)[C@]12OC(C)=O [PMA, Phorbol myristate acetate, reference compound]
IC50 (HHV-7 (KHR strain) [4]): 0.0006 µM | CC50 [5]: 0.0021 µM | CC50 [6]: 0.0015 µM | selectivity index (SI), ratio of CC50 to IC50 (HIV-1 and HHV-7): 2-7 | percentage of cell surface CD4 expression (CD4 [7]; 20 minutes): only a slight CD4 decrease | percentage of cell surface CD4 expression (CD4 [7]; 4 hours): dramatically decreased | percentage of cell surface CD4 expression (CD4 [7]; 1 day): almost undetectable | percentage of cell surface CD4 expression (CD4 [7]; 4 days): 81.6%

C=C1CN(S(=O)(=O)c2ccc(C)cc2)CCCN(C2CCCC2)CCCN(S(=O)(=O)c2ccc(C)cc2)C1 [QJ040]
IC50 (HIV-1 strain NL4.3): 4.23 µg/mL (≈ 7.56 µM) | IC50 (HHV-7 (KHR strain) [1]): 1.55 µg/mL (≈ 2.77 µM) | CC50 ([8]; MT-4 cells): 17 µg/mL (≈ 30.4 µM) | CC50 ([8]; SupT1 cells): 20.5 µg/mL (≈ 36.6 µM) | down-regulation of CD4 expression (in words) (CD4 [7]): down-regulate CD4 expression | IC50 (CD4 [2]; MT-4 cells, day 3): 9.54 µM | IC50 (CD4 [3]): 14.1 µM

C=C1CN(S(=O)(=O)c2ccc(C)cc2)CCCN(CC2CC2)CCCN(S(=O)(=O)c2ccc(C)cc2)C1 [QJ041]
IC50 (HIV-1 strain NL4.3): 3.66 µg/mL (≈ 6.71 µM) | IC50 (HHV-7 (KHR strain) [1]): 1.76 µg/mL (≈ 3.22 µM) | CC50 ([8]; MT-4 cells): 18.6 µg/mL (≈ 34.1 µM) | CC50 ([8]; SupT1 cells): 21.9 µg/mL (≈ 40.1 µM) | down-regulation of CD4 expression (in words) (CD4 [7]): down-regulate CD4 expression | IC50 (CD4 [2]; MT-4 cells, day 3): 6.38 µM | CD4 down-modulating activity compared with CADA or parent analog (in words) (CD4 [2]; structure-activity discussion of Table 5 (MT-4 and SupT1 cells)): reduced the activity | IC50 (CD4 [3]): 7.6 µM
